The values that follow come from PubChem BioAssay (NCI).

Test in all cases: growth of human tumour cells (NCI), 48 h
Assay [1] concerns RXF 393 renal.
For assay [2], the system named is MCF7 breast.
Assay [3] relates to NCI-H23 lung.
Assay [4] concerns MOLT-4 leukemia.
The subject of assay [5] is HCT-15 colon.
Assay [6] has as its system HOP-92 NSCLC.
In assay [7] the test system is HS 578T breast.
Assay [8] deals with MDA-MB-231 breast.
The subject of assay [9] is SR leukemia.
Assay [10] deals with HT29 colon.

“And” between values parts separate entries of the source, which are not always exact repeats. Identical values can stand only once.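 Dose response: 5 concentrations. Exposure: 48 h. Format: 96-well plates. Endpoint: linear interpolation; highest concentration if not reached. At the GI50, growth is halved. TGI: concentration producing complete growth inhibition.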

Turning to `CCN(CC)c1cc(/C=C/c2ccc(OC)c(OC)c2)nc2cc(F)c(F)cc12`, the GI50 in [1] is 1.8 µM; in [2], 15.9 µM; in [3] it was 4.06 µM; in [4], 14.2 µM; in assay [5], 22.8 µM; in assay [6], 1.68 µM. The GI50 was 3.09 µM in assay [7], 2.3 µM in [8] and 3.15 µM in assay [9]. The TGI is 4.01 µM in assay [1]; over 100 µM in assay [2]; 14 µM in [3]; 33.6 µM in assay [4]; over 100 µM in [5]; 4.74 µM in [6]. The TGI was determined as 12.3 µM in [7], 7.47 µM in [8] and 12.3 µM in [9].

Turning to `CCn1c2c(n(CC)c1=S)-c1c(n(CC)c(=S)n1CC)SSSS2`, the TGI was 7.55 µM in [1]; 40.7 µM in assay [2]; 22.3 µM in assay [3]; 11.1 µM in assay [4]; 11.8 µM in [5]; 9.71 µM in assay [6]. Also, the TGI in assay [7] worked out at 91.1 µM; in assay [8], 10 µM; in [9], 9.17 µM; in assay [10], 29.2 µM.

On to `Cc1nc2sccn2c(=O)c1CCN1CCC(=C(c2ccc(F)cc2)c2ccc(F)cc2)CC1`, for which the GI50 is 11.3 µM in [1]; 6.88 µM in [2]; 13.2 µM in assay [3]; 8.52 µM in assay [4]; 4.53 µM in [5]; 5.16 µM in [6]. Moreover, the GI50 in [7] was 16.3 µM; in assay [8], 15.2 µM; in assay [9], 0.551 µM; in [10] it was 5.37 µM. For the same compound, the TGI in assay [1] is 26.9 µM; in assay [2], 23 µM; in [3] it was 29 µM; in assay [4] it was 29.9 µM; in assay [5], 17.5 µM; in assay [6] it was 19.2 µM. In addition, the TGI in assay [7] is 43.3 µM; in [8], 31.9 µM; in [9], 26.7 µM; in assay [10] it was 19 µM.

`O=C1OCC(c2cccs2)=C1Cl`: the GI50 is 53 µM in assay [1]; 39.3 µM in [2]; 60.6 µM in assay [3]; over 100 µM in assay [4]; 74.2 µM in assay [5]; 54.5 µM in assay [6]. Further, the GI50 in assay [7] was 39 µM; in [8], 24.7 µM; in [9], over 100 µM; in assay [10], 62.4 µM. The TGI in assay [1], in [2], in [3], in assay [4], in assay [5] and in assay [6] was over 100 µM in each case. Also, the TGI in assay [7] is over 100 µM; in assay [8], 98.2 µM; in assay [9] it was over 100 µM; in [10] it was over 100 µM.

Regarding `O=C1C(Br)=CC2(C=C1Br)CCN=c1c2c(O)c2nc3ccccc3c3ccnc1c23`, the GI50 in assay [1] is 1.11 µM; in assay [2] it was 0.765 µM; in [3] it was 1.91 µM; in assay [4] it was 0.143 µM; in assay [5] it was 0.829 µM; in assay [6], 0.593 µM. Besides, the GI50 in assay [7] was 4 µM; in [8], 3.59 µM; in assay [9], 0.195 µM; in [10], 1.07 µM. Besides, the TGI in assay [1] is 4.36 µM; in assay [2] it was 2.69 µM; in [3] it was 8.41 µM; in assay [4], 2.67 µM; in [5], 1.59 µM; in [6] it was 2.38 µM. Besides, the TGI in assay [7] stood at 17.1 µM; in assay [8], 12.1 µM; in assay [9] it was 5.83 µM; in [10], 3.02 µM.

On to `COc1cc(NCCCCN=C(N)NC(N)=NC(C)C)c2ncccc2c1`, for which the GI50 is over 47 µM in [1]; 0.0516 µM in assay [2]; 0.984 µM in assay [3]; 3.28 µM in assay [4]; over 100 µM in [5]; 1.28 µM in assay [6]. Moreover, the GI50 in assay [7] was 5.51 µM; in assay [8], 1.94 µM; in assay [9] it was 7.01 µM; in assay [10] it was 7.49 µM. Moreover, the TGI in [1] is over 100 µM; in [2], 0.327 µM; in [3], 10.1 µM; in assay [4] it was 16.6 µM; in assay [5], over 100 µM; in [6] it was 12.5 µM. For the same compound, the TGI in assay [7] worked out at 27.1 µM; in [8] it was 17.8 µM; in [9], 32.6 µM; in assay [10] it was 32.2 µM.

`COc1ccc(/C(Cl)=C(\C=O)c2ccc([N+](=O)[O-])cc2)cc1OC`: the TGI in assay [1] is 19.2 µM; in assay [2] it was 36.8 µM; in assay [3], 15.8 µM; in assay [4] it was over 27.4 µM; in assay [5], 23.7 µM; in assay [6] it was 24.9 µM. The TGI in assay [7] is over 100 µM; in assay [8] it was 83.9 µM; in assay [9], 83.3 µM; in assay [10], over 30.5 µM.

As for `O=[N+]([O-])c1ccc(-c2nc(-c3ccccc3)c(-c3ccccc3)n2-c2ccccc2)cc1`, the GI50 is 3.08 µM in assay [1]; 2.04 µM in assay [2]; 2.62 µM in [3]; 2.28 µM in assay [4]; 2.82 µM in assay [5]; 2.42 µM in assay [6]. Besides, the GI50 in assay [7] was 2.74 µM; in assay [8], 2.36 µM; in assay [9] it was 6.2 µM; in assay [10], 1.75 µM. For the same compound, the TGI was determined as 9.78 µM in assay [1]; 6.28 µM in assay [2]; 11.3 µM in assay [3]; 11.5 µM in assay [4]; 8.76 µM in [5]; 7.44 µM in assay [6]. In addition, the TGI in assay [7] was 14.4 µM; in assay [8] it was 7.04 µM; in [9], over 100 µM; in assay [10] it was 3.37 µM.

Turning to `ClC1=C(Cl)C(Cl)=C(Cl)C1=C/C=C/c1ccccc1`, the GI50 is 0.186 µM in assay [1]; 0.139 µM in assay [2]; 0.257 µM in assay [3]; 0.335 µM in assay [4]; 0.179 µM in [5]; 0.165 µM in [6]. For the same compound, the GI50 was 0.208 µM in assay [7], 0.344 µM in assay [8], 0.138 µM in [9] and 0.319 µM in assay [10]. Further, the TGI in assay [1] turned out to be 0.36 µM; in [2], 0.664 µM; in assay [3], 1.14 µM; in [5], 0.391 µM; in assay [6], 0.491 µM; in assay [7], 0.685 µM. Further, the TGI is over 100 µM in [8] and 1.16 µM in assay [10].

As to `OCCCN=NNc1ccc(-c2nc3ccccc3[nH]2)cc1`, the GI50 is 4.06 µM in assay [1]; 0.0891 µM in assay [2]; 43.6 µM in assay [4]; 4.43 µM in assay [5]; 14.8 µM in assay [6]; 4.54 µM in assay [7]. The GI50 in assay [8] was 3.31 µM; in assay [9], 29.9 µM. For the same compound, the TGI in assay [1] is 18 µM; in assay [2], 2.4 µM; in assay [4], over 100 µM; in [5] it was over 100 µM; in assay [6], 66.5 µM; in assay [7] it was 21.9 µM. For the same compound, the TGI in assay [8] was 12.7 µM; in assay [9], over 100 µM.

For `CCN(CC)CCCNc1cccc2c(SCc3ccccc3)ccnc12`, the GI50 in assay [1] was 1.87 µM; in [2], 1.62 µM; in assay [3] it was 1.9 µM; in assay [5], 1.72 µM; in assay [6], 2.18 µM; in assay [7], 2.2 µM. The GI50 in [8] was 1.01 µM; in assay [9] it was 1.79 µM; in assay [10], 0.907 µM. Moreover, the TGI is 3.44 µM in assay [1]; 3.16 µM in assay [2]; 5.09 µM in [3]; 3.82 µM in [5]; 7.32 µM in assay [6]; 6.31 µM in [7]. Moreover, the TGI in [8] was 2.48 µM; in assay [9], 4.47 µM; in [10], 2.3 µM.

As for `CC1/C=C/C=C/C=C/C=C/C=C/C=C/C=C/C(O[C@@H]2O[C@H](C)[C@H](O)[C@@H](O)[C@@H]2N)CC(O)C(C(=O)O)C(O)CC(=O)CC(O)CC(O)CC(O)CC(=O)CCCC(=O)CC(=O)OC1C(C)CC(C)C(O)CC(=O)c1ccc(N)cc1` (stereo partly specified), the GI50 in assay [1] is 0.0469 µM and 0.156 µM; in assay [2] it was 0.0797 µM and 0.422 µM; in [3], 0.055 µM and 0.187 µM; in assay [4], 0.0679 µM and 0.172 µM; in [6] it was 0.184 µM; in assay [7], 0.0765 µM and 0.329 µM. For the same compound, the GI50 in [8] was 0.0613 µM and 0.3 µM; in assay [9], 0.0835 µM and 0.168 µM; in assay [10] it was 0.0585 µM and 0.345 µM. In addition, the TGI in [1] is 0.0894 µM and 0.304 µM; in [2], 0.173 µM and 1.59 µM; in assay [3], 0.102 µM and 0.371 µM; in assay [4], 0.143 µM and 0.402 µM; in assay [6] it was 0.537 µM; in assay [7], 0.211 µM and 1.58 µM. Moreover, the TGI was 0.118 µM and 0.943 µM in assay [8]; 0.254 µM and 0.422 µM in assay [9].

Consider `CCSCC(N)C(=O)O` (stereo unspecified), for which the TGI in assay [1], in assay [2], in assay [3], in assay [5], in [6] and in assay [7] was over 100 µM each time. Also, the TGI in assay [8], in [9] and in assay [10] was over 100 µM each time.
